Patent US11383241B2, “Mechano-node pore sensing” (The Regents of the University of California, priority 2017, dated 2022)

How the values were obtained:
Type in all cases: cell-based, human
[1] = test system: MCF-7 cells; assay: mechano-NPS mechanical phenotyping of Latrunculin-treated MCF-7 cells; conditions: for cellular deformation in the transverse direction (δdeform) compared to control: one hour at 37° C.; for cellular deformation in the transverse direction (δdeform) compared to control / wCDI (whole cell deformability index) compared to untreated control cells: strain εavg˜0.3; for treated cells that instantaneously recover from deformation: ΔTr˜0 ms, untreated 38.3%
From the text: (§1) Platform design, including geometry and sizing, may be configured and adapted to target indications, such as cell type and size range. In this example, the platform comprises of a 30 μm-high microfluidic channel embedded in a polydimethylsiloxane (PDMS) mold bonded to a glass substrate with pre-defined platinum (Pt) electrodes and gold (Au) contact pads (FIG. 1a). The central part of the channel, which we refer to as the “contraction channel”, is long (2055 μm) and narrow (10 or 12 μm-wide) and flanked on either side by a series of nodes and pores that are 85 μm and 25 μm wide, respectively (FIG. 1a, inset). The length of the contraction channel was chosen to provide sufficient time (˜30 ms) over which a cell experiences constant applied strain. The node and pore dimensions were chosen for sufficient signal-to noise ratios. Given the flexibility and ease of device design and fabrication, different contraction channel lengths and node and pore dimensions could be employed. Filters that are 25 μm in width (the width chosen based on the size range of cells measured in these studies, ˜15-20 μm in diameter) are included at the entrance of the microfluidic channel in order to remove cellular clusters that may otherwise clog the device. Applying a constant DC voltage (1 V) across the channel, we employ a four-terminal measurement technique^37-40 to measure the current pulses caused by cells transiting across the microfluidic channel when a non-pulsatile pressure of ˜21 kPa (determined by a commercial pressure gauge, SSI Technologies) is utilized (FIG. 1b and FIG. 2). After low-pass filtering all current versus time data, we employ custom-written software to extract both the magnitude and duration of each current sub-pulse (ΔInp, ΔIc, ΔTcont, and ΔTr in FIG. 1b; FIG. 3).
(§2) We disrupted actin polymerization with Latrunculin A and B (LatA and LatB, Enzo Life Sciences)^50. Prior to deformability measurements, MCF-7 and MCF-10A cells were incubated with 2.5 or 5 μg/mL LatA or LatB in each cell's respective growth medium for one hour at 37° C. and 5% CO2^29, 51, 52. Cells were then released from culture flasks with 0.25% trypsin/EDTA, rinsed once with PBS, centrifuged at […], and re-suspended in PBS at a concentration of ˜100,000 cells/mL. […] They were then permeabilized with 0.1% Triton-X 100 (Sigma-Aldrich) in PBS for 5 min. Cell nuclei and F-actin were then counter-stained with 4′,6-diamidino-2-phenylindole (DAPI, Sigma-Aldrich, 10236276001) and rhodamine phalloidin (Thermo Fisher Scientific, R415), respectively, per manufacturer's protocol, and then imaged with a Zeiss LSM710 confocal microscope.
(§3) To determine De, we measure polystyrene microspheres of known size with the microfluidic channel. Using the values of ΔI/I arising from the microspheres, along with the known values of L and d (the size of the microspheres in this instance), we can numerically solve for De in Equation (5). Once De is known, we can subsequently determine Dcell of a screened cell by numerically solving for d in Equation (5) using the obtained values of ΔInp/I. We can also determine the volume of the deformed cell, Vdeform, by the relationship^39, 57, 58, ΔIc/I˜Vdeform/Vcontraction, where Vcontraction is the volume of the contraction channel. To calculate Ldeform, we assume the cell undergoes an isometric deformation in the direction of both the channel's longitudinal axis and channel height, resulting in an oblate-spheroid shape. From the relationship between the volume and major radius of the oblate spheroid, Vdeform=πwcLdeform^2/6 where wc is the contraction-channel width, we can determine Ldeform from ΔIc/I. We quantify the transverse deformation of the cell, δdeform=Ldeform/Dcell, as it transits the contraction channel.
(§4) As a cell traverses through each section of the channel, the duration of the resulting sub-pulse produced by a cell corresponds to the cell's transit time (ΔT) through that part of the channel. […]

[2] = test system: MCF-10A cells; assay: mechano-NPS mechanical phenotyping of Latrunculin-treated MCF-10A cells; conditions: for cellular deformation in the transverse direction (δdeform) compared to control: one hour at 37° C.; for cellular deformation in the transverse direction (δdeform) compared to control / wCDI (whole cell deformability index) compared to untreated control cells: strain εavg˜0.3; for treated cells that do not recover within the 40 ms time window (prolonged recovery): ΔTr>40 ms, untreated 9.7%
From the text: as §1, §2, §3, §4

[3] = test system: F-actin filaments; assay: F-actin staining (rhodamine phalloidin) and confocal microscopy of treated cells; conditions: MCF-7 and MCF-10A cells, after one hour incubation; more so with Lat-A than with Lat-B
Protocol: as §2

| Compound | cellular deformation in the transverse direction (δdeform) compared to control ([1]; 2.5 or 5 μg/mL) | wCDI (whole cell deformability index) compared to untreated control cells [1] | treated cells that instantaneously recover from deformation [1] [%] | cellular deformation in the transverse direction (δdeform) compared to control ([2]; 2.5 or 5 μg/mL) | wCDI (whole cell deformability index) compared to untreated control cells [2] | treated cells that do not recover within the 40 ms time window (prolonged recovery) [2] [%] | F-actin filaments by staining and confocal microscopy [3] | change in wCDI as a function of treatment concentration ([1]; 2.5 or 5 μg/mL) | change in wCDI as a function of treatment concentration ([2]; 2.5 or 5 μg/mL) |
| --- | --- | --- | --- | --- | --- | --- | --- | --- | --- |
| C/C1=C/C(=O)O[C@@H]2C[C@@H](CC[C@H](C)/C=C\CC1)O[C@@](O)([C@@H]1CSC(=O)N1)C2 [LatB, Latrunculin B] | significantly reduced | increased | 24.2 | significantly reduced | no detectable change | 41.4 | inhibited |  |  |
| C/C1=C/C(=O)O[C@@H]2C[C@@H](CC[C@H](C)/C=C\C=C\CC1)O[C@@](O)([C@@H]1CSC(=O)N1)C2 [LatA, Latrunculin A] | significantly reduced | increased | 8.1 | significantly reduced | increased | 66.7 | inhibited | increased with concentration | increased with concentration |
